{"source": "patent US20150011423A1", "about": "“MEANS AND METHODS FOR ASSESSING KIDNEY TOXICITY” (BASF SE, priority 2011, published 2015)", "key": {"[1]": {"tested_on": "rats", "test": "28-day repeated dose study in rats with mass spectrometry-based plasma metabolite profiling (GC-MS, LC-MS, SPE-LC-MS); treatment ratios versus control", "conditions": "plasma"}, "[2]": {"tested_on": "rats", "conditions": "rat, in vivo"}, "[3]": {"conditions": "female rats, day 28, high dose, Table 5a tubular necrosis"}, "[4]": {"conditions": "female rats, day 28, high dose, Table 5b tubular necrosis"}, "[5]": {"conditions": "male rats, day 7, high dose, Table 1c diuretic effect"}, "[6]": {"conditions": "male rats, day 7, high dose, Table 6b ACE inhibitor induced like toxicity"}, "[7]": {"conditions": "male rats, day 7, high dose, Table 1d diuretic effect"}, "[8]": {"conditions": "male rats, day 14, high dose, Table 1c diuretic effect"}, "[9]": {"conditions": "male rats, day 14, high dose, Table 6b ACE inhibitor induced like toxicity"}, "[10]": {"conditions": "male rats, day 14, high dose, Table 1d diuretic effect"}, "[11]": {"conditions": "male rats, day 28, high dose, Table 6b ACE inhibitor induced like toxicity"}, "[12]": {"conditions": "male rats, day 28, high dose, Table 1d diuretic effect"}, "[13]": {"conditions": "female rats, day 14, high dose, Table 2a glomerular-tubular defect"}, "[14]": {"conditions": "female rats, day 14, high dose, Table 2b glomerular-tubular defect"}, "[15]": {"conditions": "female rats, day 28, high dose, Table 2a glomerular-tubular defect"}, "[16]": {"conditions": "female rats, day 28, high dose, Table 2b glomerular-tubular defect"}, "[17]": {"conditions": "male rats, day 7, high dose, Table 2d glomerular-tubular defect"}, "[18]": {"conditions": "male rats, day 14, high dose, Table 2c glomerular-tubular defect"}, "[19]": {"conditions": "male rats, day 14, high dose, Table 2d glomerular-tubular defect"}, "[20]": {"conditions": "male rats, day 28, high dose, Table 2c glomerular-tubular defect"}, "[21]": {"conditions": "male rats, day 28, high dose, Table 2d glomerular-tubular defect"}, "[22]": {"conditions": "male rats, day 28, high dose, Table 1c diuretic effect"}}, "note": "Read-outs that look alike come from different tables or passages of the source. Marks after values point to notes of the source that are not given here."}
{"smiles": "NC[C@H]1O[C@H](O[C@H]2[C@H](O)[C@@H](O[C@H]3O[C@H](CO)[C@@H](O)[C@H](N)[C@H]3O)[C@H](N)C[C@@H]2N)[C@H](N)C[C@@H]1O", "note": "[Tobramycin s.c., Tobramycin]", "values": [{"measurement": "Docosahexaenoic acid (C22:cis[4,7,10,13,16,19]6), treatment ratio versus control", "setting": "[1]; [3]", "result": "1.05 *"}, {"measurement": "Docosapentaenoic acid (C22:cis[7,10,13,16,19]5), treatment ratio versus control", "setting": "[1]; [3]", "result": "1.56 *"}, {"measurement": "Eicosanoic acid (C20:0), treatment ratio versus control", "setting": "[1]; [3]", "result": 1.05}, {"measurement": "Glycerol, lipid fraction, treatment ratio versus control", "setting": "[1]; [3]", "result": "1.2 *"}, {"measurement": "Phosphate (inorganic and organic phosphates), treatment ratio versus control", "setting": "[1]; [3]", "result": "1.3 *"}, {"measurement": "Hippuric acid, treatment ratio versus control", "setting": "[1]; [4]", "result": "0.14 *"}, {"measurement": "Lactate, treatment ratio versus control", "setting": "[1]; [4]", "result": "0.64 *"}, {"measurement": "Leucine, treatment ratio versus control", "setting": "[2]", "result": "1.26 *"}]}
{"smiles": "NCCCC[C@H](N[C@@H](CCc1ccccc1)C(=O)O)C(=O)N1CCC[C@H]1C(=O)O", "note": "[Lisinopril]", "values": [{"measurement": "Threonine, treatment ratio versus control", "setting": "[1]; [5]", "result": "0.99^"}, {"measurement": "Lysine, treatment ratio versus control", "setting": "[1]; male rats, day 7, high dose, Table 6a ACE inhibitor induced like toxicity", "result": "0.92^"}, {"measurement": "Cytosine, treatment ratio versus control", "setting": "[1]; [6]", "result": "0.97^"}, {"measurement": "Glutamate, treatment ratio versus control", "setting": "[1]; [6]", "result": "0.94 *"}, {"measurement": "Glutamate, treatment ratio versus control", "setting": "[1]; [7]", "result": "0.94 *"}, {"measurement": "Lysophosphatidylcholine (C20:4), treatment ratio versus control", "setting": "[1]; [7]", "result": "0.97^"}, {"measurement": "Malate, treatment ratio versus control", "setting": "[1]; [7]", "result": "0.75 *"}, {"measurement": "Ceramide (d18:1, C24:0), treatment ratio versus control", "setting": "[1]; [8]", "result": "1.19 *"}, {"measurement": "Choline plasmalogen No 03, treatment ratio versus control", "setting": "[1]; [8]", "result": "1.1 *"}, {"measurement": "Sphingomyelin (d18:2, C16:0), treatment ratio versus control", "setting": "[1]; [8]", "result": "1.38 *"}, {"measurement": "1,5-Anhydrosorbitol, treatment ratio versus control", "setting": "[1]; male rats, day 14, high dose, Table 6a ACE inhibitor induced like toxicity", "result": "1.2 *"}, {"measurement": "Cytosine, treatment ratio versus control", "setting": "[1]; [9]", "result": "0.89 *"}, {"measurement": "Glutamate, treatment ratio versus control", "setting": "[1]; [9]", "result": "0.85 *"}, {"measurement": "Glutamate, treatment ratio versus control", "setting": "[1]; [10]", "result": "0.85 *"}, {"measurement": "Lysophosphatidylcholine (C20:4), treatment ratio versus control", "setting": "[1]; [10]", "result": "0.94^"}, {"measurement": "Malate, treatment ratio versus control", "setting": "[1]; [10]", "result": "0.6 *"}, {"measurement": "1,5-Anhydrosorbitol, treatment ratio versus control", "setting": "[1]; male rats, day 28, high dose, Table 6a ACE inhibitor induced like toxicity", "result": "1.53 *"}, {"measurement": "Cytosine, treatment ratio versus control", "setting": "[1]; [11]", "result": 1}, {"measurement": "Glutamate, treatment ratio versus control", "setting": "[1]; [11]", "result": "0.87 *"}, {"measurement": "Glutamate, treatment ratio versus control", "setting": "[1]; [12]", "result": "0.87 *"}, {"measurement": "Lysophosphatidylcholine (C20:4), treatment ratio versus control", "setting": "[1]; [12]", "result": "0.9 *"}, {"measurement": "Malate, treatment ratio versus control", "setting": "[1]; [12]", "result": "0.65 *"}, {"measurement": "1,5-Anhydrosorbitol, treatment ratio versus control", "setting": "[2]", "result": "1.22 *"}]}
{"smiles": "CC(C)(S)[C@@H](N)C(=O)O", "note": "[Penicillamine]", "values": [{"measurement": "3-Hydroxyindole, treatment ratio versus control", "setting": "[1]; [13]", "result": "0.87^"}, {"measurement": "3-Indoxylsulfate, treatment ratio versus control", "setting": "[1]; [13]", "result": "0.93^"}, {"measurement": "Creatinine, treatment ratio versus control", "setting": "[1]; [13]", "result": "1.69 *"}, {"measurement": "Elaidic acid (C18:trans[9]1), treatment ratio versus control", "setting": "[1]; [13]", "result": 1.2}, {"measurement": "Adrenaline (Epinephrine), treatment ratio versus control", "setting": "[1]; [14]", "result": "0.55 *"}, {"measurement": "Glucosamine, treatment ratio versus control", "setting": "[1]; [14]", "result": "0.75^"}, {"measurement": "Mannosamine, treatment ratio versus control", "setting": "[1]; [14]", "result": "0.64 *"}, {"measurement": "3-Hydroxyindole, treatment ratio versus control", "setting": "[1]; [15]", "result": "1.53 *"}, {"measurement": "Elaidic acid (C18:trans[9]1), treatment ratio versus control", "setting": "[1]; [15]", "result": "1.35 *"}, {"measurement": "Glucosamine, treatment ratio versus control", "setting": "[1]; [16]", "result": "0.48 *"}, {"measurement": "Histamine, treatment ratio versus control", "setting": "[1]; [16]", "result": "0.52 *"}, {"measurement": "Mannosamine, treatment ratio versus control", "setting": "[1]; [16]", "result": "0.5 *"}, {"measurement": "4-Hydroxy-3-methoxyphenylglycol (HMPG), treatment ratio versus control", "setting": "[1]; [17]", "result": "0.91 *"}, {"measurement": "Cysteine, treatment ratio versus control", "setting": "[1]; [17]", "result": "0.46 *"}, {"measurement": "Isopalmitic acid (C16:0), treatment ratio versus control", "setting": "[1]; [17]", "result": "0.75 *"}, {"measurement": "Metanephrine, treatment ratio versus control", "setting": "[1]; [17]", "result": "0.83 *"}, {"measurement": "Normetanephrine, treatment ratio versus control", "setting": "[1]; [17]", "result": "0.79 *"}, {"measurement": "Creatine, treatment ratio versus control", "setting": "[1]; [18]", "result": "1.35 *"}, {"measurement": "Creatinine, treatment ratio versus control", "setting": "[1]; [18]", "result": "1.8 *"}, {"measurement": "Threonic acid, treatment ratio versus control", "setting": "[1]; [18]", "result": "1.4 *"}, {"measurement": "4-Hydroxy-3-methoxyphenylglycol (HMPG), treatment ratio versus control", "setting": "[1]; [19]", "result": "0.84 *"}, {"measurement": "Cysteine, treatment ratio versus control", "setting": "[1]; [19]", "result": "0.51 *"}, {"measurement": "Metanephrine, treatment ratio versus control", "setting": "[1]; [19]", "result": "0.43 *"}, {"measurement": "Normetanephrine, treatment ratio versus control", "setting": "[1]; [19]", "result": "0.66 *"}, {"measurement": "Creatine, treatment ratio versus control", "setting": "[1]; [20]", "result": "1.27 *"}, {"measurement": "Glycerol-3-phosphate, polar fraction, treatment ratio versus control", "setting": "[1]; [20]", "result": "1.4 *"}, {"measurement": "Lysophosphatidylcholine (C18:2), treatment ratio versus control", "setting": "[1]; [20]", "result": 1.1}, {"measurement": "Threonic acid, treatment ratio versus control", "setting": "[1]; [20]", "result": "1.7 *"}, {"measurement": "4-Hydroxy-3-methoxyphenylglycol (HMPG), treatment ratio versus control", "setting": "[1]; [21]", "result": "0.79 *"}, {"measurement": "Cysteine, treatment ratio versus control", "setting": "[1]; [21]", "result": "0.85 *"}, {"measurement": "Metanephrine, treatment ratio versus control", "setting": "[1]; [21]", "result": "0.68 *"}, {"measurement": "Normetanephrine, treatment ratio versus control", "setting": "[1]; [21]", "result": "0.68 *"}, {"measurement": "3-Indoxylsulfate, treatment ratio versus control", "setting": "[2]", "result": "1.41 *"}, {"measurement": "Adrenaline (Epinephrine), treatment ratio versus control", "setting": "[2]", "result": "1.14^"}, {"measurement": "Histamine, treatment ratio versus control", "setting": "[2]", "result": "1.36^"}, {"measurement": "Threonic acid, treatment ratio versus control", "setting": "[2]", "result": "1.47 *"}]}
{"smiles": "Cn1cnc2c1c(=O)[nH]c(=O)n2C", "note": "[Theobromine]", "values": [{"measurement": "Ceramide (d18:1, C24:0), treatment ratio versus control", "setting": "[1]; [5]", "result": "0.84^"}, {"measurement": "Choline plasmalogen No 02, treatment ratio versus control", "setting": "[1]; [5]", "result": "1.38 *"}, {"measurement": "Glutamate, treatment ratio versus control", "setting": "[1]; [7]", "result": "0.74 *"}, {"measurement": "Lysophosphatidylcholine (C20:4), treatment ratio versus control", "setting": "[1]; [7]", "result": "0.8 *"}, {"measurement": "Ceramide (d18:1, C24:0), treatment ratio versus control", "setting": "[1]; [8]", "result": "1.35 *"}, {"measurement": "Choline plasmalogen No 03, treatment ratio versus control", "setting": "[1]; [8]", "result": 1.1}, {"measurement": "Threonine, treatment ratio versus control", "setting": "[1]; [8]", "result": "1.53 *"}, {"measurement": "Glutamate, treatment ratio versus control", "setting": "[1]; [10]", "result": "0.94 *"}, {"measurement": "Lysophosphatidylcholine (C20:4), treatment ratio versus control", "setting": "[1]; [10]", "result": "0.86 *"}, {"measurement": "Ceramide (d18:1, C24:1), treatment ratio versus control", "setting": "[1]; [22]", "result": "1.52^"}, {"measurement": "Choline plasmalogen No 03, treatment ratio versus control", "setting": "[1]; [22]", "result": "1.1 *"}, {"measurement": "Sphingomyelin (d18:2, C16:0), treatment ratio versus control", "setting": "[1]; [22]", "result": "1.9 *"}, {"measurement": "Glutamate, treatment ratio versus control", "setting": "[1]; [12]", "result": "0.87 *"}, {"measurement": "Lysophosphatidylcholine (C20:4), treatment ratio versus control", "setting": "[1]; [12]", "result": "0.8 *"}, {"measurement": "Ceramide (d18:1, C24:0), treatment ratio versus control", "setting": "[2]", "result": "1.33 *"}, {"measurement": "Choline plasmalogen No 03, treatment ratio versus control", "setting": "[2]", "result": "1.08 *"}]}
